According to PMC6150310, “Synthesis and Structure–Activity Relationships of 4-Morpholino-7,8-Dihydro-5H-Thiopyrano[4,3-d]pyrimidine Derivatives Bearing Pyrazoline Scaffold” (Molecules : A Journal of Synthetic Chemistry and Natural …, 2017):

Columns and labels:
[1] = tested on: PC-3 cell line; assay: MTT cytotoxicity assay, PC-3; type: cell-based; conditions: Homo sapiens, PC-3, 72 h, average of two determinations, NA = No Activity
Procedure: (§1) Taking GDC-0941 as the reference compound, the target compounds (7a–l and 8a–l) were evaluated for the cytotoxicity against four cancer cell lines A549, PC-3, MCF-7, and HepG2 by 3-(4,5-dimethylthiazolyl-2)-2,5-diphenyltetrazolium bromide (MTT) cell proliferation assay. In order to confirm the types of target compound, selective or mixed-type inhibitors, the selected compound, 8d, was measured for its PI3Kα kinase inhibitory activity together with reference compounds GDC-0941 and PI103 via the Kinase-Glo® Luminescent […] assay. The results expressed as inhibition rates or IC50 values are summarized in Table 1 and Table 2, where the values are the average of at least two independent experiments.
(§2) The in vitro cytotoxic activities of Compounds 7a–l and 8a–l were evaluated with A549, PC-3, HepG2, and MCF-7 cell lines by the standard MTT assay, with GDC-0941 as a positive control. The cancer cell lines were cultured in minimum essential medium (MEM) supplement with 10% fetal bovine serum (FBS). Approximately, 4 × 10^3 cells, suspended in MEM medium, were plated onto each well of a 96-well plate and incubated in 5% CO2 at 37 °C for 24 h. The test compounds at the indicated final concentrations were added to the culture medium, and cell cultures continued for 72 h. Fresh MTT was added to each well at a terminal concentration of […] and incubated with cells at 37 °C for 4 h. The formazan crystals were dissolved in 100 µL of DMSO in each well, and the absorbency at 492 nm (for absorbance of MTT formazan) and 630 nm (for the reference wavelength) was measured with an enzyme linked immunosorbent assay (ELISA) reader (MR-96A Mindray Elisa Microplate Reader, Guangzhou, China). All compounds were tested three times in each of the cell lines. The results expressed as inhibition rates or IC50 were the averages of two determinations and calculated using the Bacus Laboratories Inc. Slide Scanner (Bliss) software (the Bacus Laboratories Inc. Slide Scanner (BLISS) system, Lombard, IL, USA).

[2] = tested on: A549 cell line; assay: MTT cytotoxicity assay, A549; type: cell-based; conditions: Homo sapiens, A549, 72 h, average of two determinations, NA = No Activity
Procedure: as §1, §2

[3] = tested on: MCF-7 cell line; assay: MTT cytotoxicity assay, MCF-7; type: cell-based; conditions: Homo sapiens, MCF7, 72 h, average of two determinations, NA = No Activity
Procedure: as §1, §2

[4] = tested on: HepG2 cell line; assay: MTT cytotoxicity assay, HepG2; type: cell-based; conditions: Homo sapiens, HepG2, 72 h, average of two determinations, NA = No Activity
Procedure: as §1, §2

melting point	Structure (SMILES)	IC50 [1]	IC50 [2]	IC50 [3]	IC50 [4]
246 to 249 °C	O=S1(=O)CCc2nc(N3N=C(c4ccc(F)cc4)C[C@@H]3c3ccc(F)cc3)nc(N3CCOCC3)c2C1 [Compound 8g, (R)-2-(3,5-bis(4-Fluorophenyl)-4,5-dihydro-1H-pyrazol-1-yl)-4-morpholino-7,8-dihydro-5H-thiopyrano[4,3-d]pyrimidine 6,6-dioxide]	21.8 ± 0.67 µM	29.1 ± 0.49 µM	35.3 ± 0.39 µM	36.01 ± 0.18 µM
225 to 226 °C	Cc1ccc(C2=NN(c3nc4c(c(N5CCOCC5)n3)CS(=O)(=O)CC4)[C@@H](c3ccc(Cl)c(Cl)c3)C2)cc1 [Compound 8b, (R)-2-(5-(3,4-Dichlorophenyl)-3-(p-tolyl)-4,5-dihydro-1H-pyrazol-1-yl)-4-morpholino-7,8-dihydro-5H-thiopyrano[4,3-d]pyrimidine 6,6-dioxide]	17.8 ± 1.18 µM	35.6 ± 1.47 µM	42.46 ± 0.03 µM	
163 to 167 °C	O=S1(=O)CCc2nc(N3N=C(c4ccccc4)C[C@@H]3c3ccc(Br)cc3)nc(N3CCOCC3)c2C1 [Compound 8k, (R)-2-(5-(4-Bromophenyl)-3-phenyl-4,5-dihydro-1H-pyrazol-1-yl)-4-morpholino-7,8-dihydro-5H-thiopyrano[4,3-d]pyrimidine 6,6-dioxide]	33.5 ± 1.67 µM	35 ± 0.47 µM	32.6 ± 0.49 µM	35.49 ± 0.33 µM
140 to 142 °C	COc1ccc(C2=NN(c3nc4c(c(N5CCOCC5)n3)CS(=O)(=O)CC4)[C@@H](c3ccc(F)cc3)C2)cc1 [Compound 8h, (R)-2-(5-(4-Fluorophenyl)-3-(4-methoxyphenyl)-4,5-dihydro-1H-pyrazol-1-yl)-4-morpholino-7,8-dihydro-5H-thiopyrano[4,3-d]pyrimidine 6,6-dioxide]	26.6 ± 0.33 µM	35 ± 0.74 µM	33.9 ± 0.45 µM	32.9 ± 2.82 µM
109 to 114 °C	COc1ccc(C2=NN(c3nc4c(c(N5CCOCC5)n3)CS(=O)(=O)CC4)[C@@H](c3ccccc3)C2)cc1 [Compound 8l, (R)-2-(3-(4-Methoxyphenyl)-5-phenyl-4,5-dihydro-1H-pyrazol-1-yl)-4-morpholino-7,8-dihydro-5H-thiopyrano[4,3-d]pyrimidine 6,6-dioxide]	37.38 ± 0.23 µM			
219 to 220 °C	O=S1(=O)CCc2nc(N3N=C(c4ccccc4)C[C@@H]3c3ccccc3)nc(N3CCOCC3)c2C1 [Compound 8a, (R)-2-(3,5-Diphenyl-4,5-dihydro-1H-pyrazol-1-yl)-4-morpholino-7,8-dihydro-5H-thiopyrano[4,3-d]pyrimidine 6,6-dioxide]		27.6 ± 0.85 µM	41.2 ± 1.25 µM	32.7 ± 0.39 µM

Further lines, the molecule ahead of its results:

Structure (SMILES)	melting point	IC50 [1]	IC50 [2]	IC50 [3]	IC50 [4]
Fc1ccc(C2=NN(c3nc4c(c(N5CCOCC5)n3)CSCC4)[C@@H](c3ccc(F)cc3)C2)cc1 [Compound 7g, (R)-4-(2-(3,5-Bis(4-fluorophenyl)-4,5-dihydro-1H-pyrazol-1-yl)-7,8-dihydro-5H-thiopyrano[4,3-d]pyrimidin-4-yl)morpholine]	144 to 146 °C	15.2 ± 1.54 µM	16.9 ± 0.66 µM	26.4 ± 0.37 µM	20.3 ± 0.37 µM
Clc1ccc([C@H]2CC(c3ccccc3)=NN2c2nc3c(c(N4CCOCC4)n2)CSCC3)cc1Cl (racemic) [Compound 7e, (R)-4-(2-(5-(3,4-Dichlorophenyl)-3-phenyl-4,5-dihydro-1H-pyrazol-1-yl)-7,8-dihydro-5H-thiopyrano[4,3-d]pyrimidin-4-yl)morpholine]		37.8 ± 3.64 µM		35.9 ± 0.71 µM	
CS(=O)(=O)N1CCN(Cc2cc3nc(-c4cccc5[nH]ncc45)nc(N4CCOCC4)c3s2)CC1 [GDC-0941, Pictilisib dimethanesulfonate, reference compound]		0.2 ± 0.08 µM	6.99 ± 0.21 µM	4.3 ± 0.84 µM	0.07 ± 0.03 µM
O=S1(=O)CCc2nc(N3N=C(c4ccccc4)C[C@@H]3c3ccc(Cl)c(Cl)c3)nc(N3CCOCC3)c2C1 [Compound 8e, (R)-2-(5-(3,4-Dichlorophenyl)-3-phenyl-4,5-dihydro-1H-pyrazol-1-yl)-4-morpholino-7,8-dihydro-5H-thiopyrano[4,3-d]pyrimidine 6,6-dioxide]				35.3 ± 0.49 µM	
COc1ccc(C2=NN(c3nc4c(c(N5CCOCC5)n3)CSCC4)[C@@H](c3ccc(F)cc3)C2)cc1 [Compound 7h, (R)-4-(2-(5-(4-Fluorophenyl)-3-(4-methoxyphenyl)-4,5-dihydro-1H-pyrazol-1-yl)-7,8-dihydro-5H-thiopyrano[4,3-d]pyrimidin-4-yl)morpholine]	116 to 118 °C	29.8 ± 0.89 µM	26.7 ± 0.88 µM	30.3 ± 0.88 µM	20.5 ± 0.67 µM
c1ccc(C2=NN(c3nc4c(c(N5CCOCC5)n3)CSCC4)[C@@H](c3ccccc3)C2)cc1 [Compound 7a, (R)-4-(2-(3,5-Diphenyl-4,5-dihydro-1H-pyrazol-1-yl)-7,8-dihydro-5H-thiopyrano[4,3-d]pyrimidin-4-yl)morpholine]	139 to 142 °C	28.8 ± 2.4 µM	21.7 ± 0.76 µM	21.7 ± 0.78 µM	20.3 ± 1.15 µM
Cc1ccc(C2=NN(c3nc4c(c(N5CCOCC5)n3)CSCC4)[C@@H](c3ccc(Cl)c(Cl)c3)C2)cc1 [Compound 7b, (R)-4-(2-(5-(3,4-Dichlorophenyl)-3-(p-tolyl)-4,5-dihydro-1H-pyrazol-1-yl)-7,8-dihydro-5H-thiopyrano[4,3-d]pyrimidin-4-yl)morpholine]	194 to 196 °C	14.1 ± 3.45 µM	24.2 ± 0.74 µM	42.6 ± 1.75 µM	27.8 ± 0.99 µM
COc1ccc(C2=NN(c3nc4c(c(N5CCOCC5)n3)CS(=O)(=O)CC4)[C@@H](c3ccc(Cl)c(Cl)c3)C2)cc1 [Compound 8f, (R)-2-(5-(3,4-Dichlorophenyl)-3-(4-methoxyphenyl)-4,5-dihydro-1H-pyrazol-1-yl)-4-morpholino-7,8-dihydro-5H-thiopyrano[4,3-d]pyrimidine 6,6-dioxide]		38.65 ± 0.18 µM			35.01 ± 0.18 µM
Fc1ccc(C2=NN(c3nc4c(c(N5CCOCC5)n3)CSCC4)[C@@H](c3ccc(Br)cc3)C2)cc1 (racemic) [Compound 7j, (R)-4-(2-(5-(4-Bromophenyl)-3-(4-fluorophenyl)-4,5-dihydro-1H-pyrazol-1-yl)-7,8-dihydro-5H-thiopyrano[4,3-d]pyrimidin-4-yl)morpholine]		14.8 ± 1.02 µM	19.2 ± 1.25 µM	28.25 ± 0.14 µM	23.8 ± 0.55 µM
Fc1ccc(C2=NN(c3nc4c(c(N5CCOCC5)n3)CSCC4)[C@@H](c3ccc(Cl)c(Cl)c3)C2)cc1 [Compound 7d, (R)-4-(2-(5-(3,4-Dichlorophenyl)-3-(4-fluorophenyl)-4,5-dihydro-1H-pyrazol-1-yl)-7,8-dihydro-5H-thiopyrano[4,3-d]pyrimidin-4-yl)morpholine]	207 to 211 °C	8.91 ± 0.72 µM	6.02 ± 1.22 µM	10.3 ± 0.94 µM	8.39 ± 1.91 µM
COc1ccc(C2=NN(c3nc4c(c(N5CCOCC5)n3)CSCC4)[C@@H](c3ccccc3)C2)cc1 [Compound 7l, (R)-4-(2-(3-(4-Methoxyphenyl)-5-phenyl-4,5-dihydro-1H-pyrazol-1-yl)-7,8-dihydro-5H-thiopyrano[4,3-d]pyrimidin-4-yl)morpholine]	> 300 °C	28.25 ± 0.14 µM	36.4 ± 0.62 µM		
Cc1ccc(C2=NN(c3nc4c(c(N5CCOCC5)n3)CSCC4)[C@@H](c3ccc(Br)cc3)C2)cc1 (racemic) [Compound 7i, (R)-4-(2-(5-(4-Bromophenyl)-3-(p-tolyl)-4,5-dihydro-1H-pyrazol-1-yl)-7,8-dihydro-5H-thiopyrano[4,3-d]pyrimidin-4-yl)morpholine]		25.4 ± 0.74 µM	16.4 ± 0.43 µM		
Cc1ccc(C2=NN(c3nc4c(c(N5CCOCC5)n3)CS(=O)(=O)CC4)[C@@H](c3ccc(Br)cc3)C2)cc1 (racemic) [Compound 8i, (R)-2-(5-(4-Bromophenyl)-3-(p-tolyl)-4,5-dihydro-1H-pyrazol-1-yl)-4-morpholino-7,8-dihydro-5H-thiopyrano[4,3-d]pyrimidine 6,6-dioxide]		31.89 ± 0.25 µM	28.1 ± 0.89 µM		24.7 ± 0.74 µM
O=S1(=O)CCc2nc(N3N=C(c4ccc(F)cc4)C[C@@H]3c3ccc(Br)cc3)nc(N3CCOCC3)c2C1 (racemic) [Compound 8j, (R)-2-(5-(4-Bromophenyl)-3-(4-fluorophenyl)-4,5-dihydro-1H-pyrazol-1-yl)-4-morpholino-7,8-dihydro-5H-thiopyrano[4,3-d]pyrimidine 6,6-dioxide]		31.9 ± 0.92 µM	29.7 ± 0.32 µM	46.6 ± 0.89 µM	27.8 ± 0.64 µM
